Experiments:
Test in all cases: relative viability (nuclei count vs DMSO), 5 days (fraction); higher = more cells survive
[1] = compound: N[C@@H]1CCCN(c2c(/C=C3\SC(=O)NC3=O)cccc2-c2ccccc2)C1 [AZD1208] + CC(C)C[C@H](NC(=O)[C@H](Cc1ccccc1)NC(=O)c1cnccn1)B(O)O [Bortezomib] (partner 0.002 µM)
Summary of the method: (§1)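 Lung cancer cell lines, seeded in 1536-well plates, were treated the following day by pin tool with a single drug or with five library-drug doses (not always all listed) in √10 steps on top of a fixed anchor-drug dose. Cells were fixed and nuclei stained in one step after 5 days, and nuclei were counted. Relative viability is the nuclei count for treated wells divided by that for vehicle wells, reported as medians of duplicate plates.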

[2] = compound: CN1CCN(CC1)C2=CC(=C(C=C2)NC3=NC(=C(S3)C(=O)C4=C(C=CC=C4Cl)Cl)N)OC [XMD14-99] + Nc1nc2[nH]cc(CCc3ccc(C(=O)N[C@@H](CCC(=O)O)C(=O)O)cc3)c2c(=O)[nH]1 [Pemetrexed] (partner 0.2 µM)
Summary of the method: as §1

[3] = compound: N[C@@H]1CCCN(c2c(/C=C3\SC(=O)NC3=O)cccc2-c2ccccc2)C1 [AZD1208] + C[C@@H](Oc1cc(-c2cnn(C3CCNCC3)c2)cnc1N)c1c(Cl)ccc(F)c1Cl [Crizotinib] (partner 1 µM)
Summary of the method: as §1

[4] = compound: CN1CCN(CC1)C2=CC(=C(C=C2)NC3=NC(=C(S3)C(=O)C4=C(C=CC=C4Cl)Cl)N)OC [XMD14-99] + COc1cc2c(Oc3ccc(NC(=O)C4(C(=O)Nc5ccc(F)cc5)CC4)cc3F)ccnc2cc1OCCCN1CCOCC1 [Foretinib] (partner 0.25 µM)
Summary of the method: as §1

UMC-11 gave a relative viability ([1]; first compound 0.08 µM) of 0.742, a relative viability ([1]; first compound 0.253 µM) of 0.755 and a relative viability ([1]; first compound 0.8 µM) of 0.644. For the same cell line, the relative viability ([1]; first compound 2.53 µM) was 0.62, the relative viability ([1]; first compound 8 µM) was 0.374 and the relative viability ([2]; first compound 0.08 µM) was 0.752. It also gave a relative viability ([2]; first compound 0.8 µM) of 0.769, a relative viability ([2]; first compound 2.53 µM) of 0.688 and a relative viability ([2]; first compound 8 µM) of 0.69. The relative viability ([3]; first compound 0.08 µM) was 0.553, the relative viability ([3]; first compound 0.253 µM) was 0.502 and the relative viability ([3]; first compound 0.8 µM) was 0.426. The relative viability ([3]; first compound 2.53 µM) was 0.426, the relative viability ([3]; first compound 8 µM) was 0.275 and the relative viability ([4]; first compound 0.08 µM) was 1.03. The relative viability ([4]; first compound 0.8 µM) was 1.02, the relative viability ([4]; first compound 2.53 µM) was 1.03 and the relative viability ([4]; first compound 8 µM) was 0.865.

Reference: the supplement of paper PMC10307832
